Laboratory results as given in article PMC3245313, “Helicobacter pylori versus the Host: Remodeling of the Bacterial Outer Membrane Is Required for Survival in the Gastric Mucosa” (PLoS Pathogens, 2011).
Where two headings read alike, the source gives them in different places. Where a SMILES comes first, the peptide text is derived from it. Bridges are numbered along the chain shown (N, C = ends). Where no end group is shown, it is not given here.

How the values were obtained:
H. pylori J99 Wild Type [1] = test system: H. pylori J99 Wild Type
H. pylori J99 lpxE [2] = test system: H. pylori J99 lpxE
H. pylori J99 lpxF [3] = test system: H. pylori J99 lpxF
H. pylori J99 lpxE/F [4] = test system: H. pylori J99 lpxE/F
H. pylori J99 lpxR [5] = test system: H. pylori J99 lpxR
H. pylori J99 Wild Type [6] = format: cell-based, Helicobacter pylori; details: Polymyxin B E-Test strips on TSA with 5% blood, average of three experiments
H. pylori J99 lpxF [7] = format: cell-based, Helicobacter pylori
[8] = test system: H. pylori J99 lpxF, lpxF+; format: cell-based, Helicobacter pylori; details: Polymyxin B E-Test strips on TSA with 5% blood, average of three experiments
H. pylori J99 lpxE [9] = format: cell-based, Helicobacter pylori
H. pylori J99 lpxE/F [10] = format: cell-based, Helicobacter pylori
H. pylori J99 lpxR [11] = format: cell-based, Helicobacter pylori; details: Polymyxin B E-Test strips on TSA with 5% blood, average of three experiments
H. pylori B128 Wild Type = format: cell-based, Helicobacter pylori; details: Polymyxin B E-Test strips on TSA with 5% blood, average of three experiments
H. pylori B128 lpxF = format: cell-based, Helicobacter pylori; details: Polymyxin B E-Test strips on TSA with 5% blood, average of three experiments
H. pylori B128 lpxE = format: cell-based, Helicobacter pylori; details: Polymyxin B E-Test strips on TSA with 5% blood, average of three experiments
[12] = test system: H. pylori B128 lpxE, lpxE+; format: cell-based, Helicobacter pylori; details: Polymyxin B E-Test strips on TSA with 5% blood, average of three experiments
H. pylori B128 lpxE/F = format: cell-based, Helicobacter pylori; details: Polymyxin B E-Test strips on TSA with 5% blood, average of three experiments
H. pylori X47 Wild Type = format: cell-based, Helicobacter pylori; details: Polymyxin B E-Test strips on TSA with 5% blood, average of three experiments
H. pylori X47 lpxF = format: cell-based, Helicobacter pylori; details: Polymyxin B E-Test strips on TSA with 5% blood, average of three experiments
[13] = test system: H. pylori X47 lpxF, lpxF+; format: cell-based, Helicobacter pylori; details: Polymyxin B E-Test strips on TSA with 5% blood, average of three experiments
H. pylori X47 lpxE = format: cell-based, Helicobacter pylori; details: Polymyxin B E-Test strips on TSA with 5% blood, average of three experiments
H. pylori X47 lpxE/F = format: cell-based, Helicobacter pylori; details: Polymyxin B E-Test strips on TSA with 5% blood, average of three experiments
[14] = test system: H. pylori wild type strains; details: cited from earlier work
Protocol: Resistance to CAMPs is of great importance to all mucosal pathogens. This is especially true for H. pylori whose only known reservoir is the human gastric mucosal surface. H. pylori is highly resistant to the CAMP polymyxin B (PMB) with the minimal inhibitory concentration (MIC) of wild type strains ranging from 250–1000 µg/ml peptide. […] MICs were determined for all strains using PMB Etest strips. H. pylori wild type strain J9 ...

AKKVFKRLEKLFSKIQNDK [HP2.20]
Minimal Inhibitory Concentration (MIC) (H. pylori J99 Wild Type [1]; J99 Wild Type, 48 h): >1250 mg/L
Minimal Inhibitory Concentration (MIC) (H. pylori J99 lpxE [2]; J99 lpxE, 48 h): 583 ± 29 mg/L
Minimal Inhibitory Concentration (MIC) (H. pylori J99 lpxF [3]; J99 lpxF, 48 h): 60 ± 0 mg/L
fold decrease in resistance (H. pylori J99 lpxE/F [4]; J99 double lpxE/F mutant versus wild type, broth dilution MICs): ≥ 60 fold
Minimal Inhibitory Concentration (MIC) (H. pylori J99 lpxE/F [4]; J99 lpxE/F, 48 h): 18 ± 3 mg/L
Minimal Inhibitory Concentration (MIC) (H. pylori J99 lpxR [5]; J99 lpxR, 48 h): >1250 mg/L

polymyxin B
Polymyxin MIC (H. pylori J99 Wild Type [6]): 469.3 ± 73.9 mg/L
fold decrease in resistance (increase in sensitivity) to PMB (H. pylori J99 lpxF [7]; J99 lpxF mutant versus wild type J99, Etest MICs): 360 fold
Polymyxin MIC (H. pylori J99 lpxF [7]; J99 lpxF, Polymyxin B E-Test strips on TSA with 5% blood, average of three experiments): 1.3 ± 0.3 mg/L
Polymyxin MIC [8]: 512.0 ± 0.0 mg/L
fold decrease in resistance (increase in sensitivity) to PMB (H. pylori J99 lpxE [9]; J99 lpxE mutant versus wild type J99, Etest MICs): 16 fold
Polymyxin MIC (H. pylori J99 lpxE [9]; J99 lpxE, Polymyxin B E-Test strips on TSA with 5% blood, average of three experiments): 29.3 ± 4.6 mg/L
fold decrease in resistance (increase in sensitivity) to PMB (H. pylori J99 lpxE/F [10]; J99 double lpxE/F mutant versus wild type J99, Etest MICs): 1020 fold
Polymyxin MIC (H. pylori J99 lpxE/F [10]; J99 lpxE/F, Polymyxin B E-Test strips on TSA with 5% blood, average of three experiments): 0.46 ± 0.03 mg/L
Polymyxin MIC (H. pylori J99 lpxR [11]): 512.0 ± 0.0 mg/L
Polymyxin MIC (H. pylori J99 lpxR [11]; listed as PMB): 512 ± 0.0 mg/L
Polymyxin MIC (H. pylori B128 Wild Type): 213.3 ± 37.0 mg/L
Polymyxin MIC (H. pylori B128 lpxF): 1.8 ± 0.3 mg/L
Polymyxin MIC (H. pylori B128 lpxE): 26.7 ± 4.6 mg/L
Polymyxin MIC [12]: 234.7 ± 37.0 mg/L
Polymyxin MIC (H. pylori B128 lpxE/F): 0.61 ± 0.04 mg/L
Polymyxin MIC (H. pylori X47 Wild Type): 768.0 ± 0.0 mg/L
Polymyxin MIC (H. pylori X47 lpxF): 2.3 ± 0.6 mg/L
Polymyxin MIC [13]: 682.7 ± 147.8 mg/L
Polymyxin MIC (H. pylori X47 lpxE): 37.3 ± 9.2 mg/L
Polymyxin MIC (H. pylori X47 lpxE/F): 0.55 ± 0.08 mg/L
Minimal Inhibitory Concentration (MIC) (H. pylori J99 Wild Type [1]): >250 mg/L
Minimal Inhibitory Concentration (MIC) (H. pylori J99 lpxE [2]): 22 ± 2 mg/L
Minimal Inhibitory Concentration (MIC) (H. pylori J99 lpxF [3]): 3.8 ± 0.3 mg/L
Minimal Inhibitory Concentration (MIC) (H. pylori J99 lpxE/F [4]): 0.6 ± 0.1 mg/L
Minimal Inhibitory Concentration (MIC) (H. pylori J99 lpxR [5]): >250 mg/L
Minimal Inhibitory Concentration (MIC) [14]: 250 to 1000 mg/L

CC[C@H](C)[C@@H]1NC(=O)[C@@H]2CSSC[C@@H]3NC(=O)[C@H](Cc4ccccc4)NC(=O)[C@H](C)NC(=O)[C@H](Cc4c[nH]c5ccccc45)NC(=O)[C@H](CC(C)C)NC(=O)[C@H](CCCNC(=N)N)NC(=O)CNC(=O)[C@H](CCC(N)=O)NC(=O)[C@H](Cc4ccc(O)cc4)NC(=O)[C@H]([C@@H](C)CC)NC(=O)[C@H](CSSC[C@H](NC(=O)[C@H](Cc4ccc(O)cc4)NC(=O)[C@@H](N)CSSC[C@@H](C(=O)O)NC3=O)C(=O)N[C@@H](CCCNC(=N)N)C(=O)N[C@@H]([C@@H](C)CC)C(=O)N3CCC[C@H]3C(=O)N[C@@H](C)C(=O)N2)NC(=O)[C@H]([C@@H](C)O)NC(=O)CNC(=O)[C@H](Cc2ccc(O)cc2)NC(=O)[C@H](CCCNC(=N)N)NC(=O)[C@H](CCCNC(=N)N)NC(=O)[C@H](CCC(=O)O)NC(=O)CNC(=O)[C@H](C)NC1=O [HNP2] (H-CYCRIPACIAGERRYGTCIYQGRLWAFCC-OH; disulfide 1-29, 3-18, 8-28 (inferred); N-terminus and C-terminus assumed)
Minimal Inhibitory Concentration (MIC) (H. pylori J99 Wild Type [1]; J99 Wild Type, 48 h): >25 mg/L
Minimal Inhibitory Concentration (MIC) (H. pylori J99 lpxE [2]; J99 lpxE, 48 h): >25 mg/L
Minimal Inhibitory Concentration (MIC) (H. pylori J99 lpxF [3]; J99 lpxF, 48 h): >25 mg/L
Minimal Inhibitory Concentration (MIC) (H. pylori J99 lpxE/F [4]; J99 lpxE/F, 48 h): >25 mg/L
Minimal Inhibitory Concentration (MIC) (H. pylori J99 lpxR [5]; J99 lpxR, 48 h): >25 mg/L

AKRHHGYKRKFH-NH2 (C-terminus assumed) [P113]
Minimal Inhibitory Concentration (MIC) (H. pylori J99 Wild Type [1]; J99 Wild Type, 48 h): >400 mg/L
Minimal Inhibitory Concentration (MIC) (H. pylori J99 lpxE [2]; J99 lpxE, 48 h): 341 ± 14 mg/L
Minimal Inhibitory Concentration (MIC) (H. pylori J99 lpxF [3]; J99 lpxF, 48 h): 178 ± 3 mg/L
Minimal Inhibitory Concentration (MIC) (H. pylori J99 lpxE/F [4]; J99 lpxE/F, 48 h): 141 ± 14 mg/L
Minimal Inhibitory Concentration (MIC) (H. pylori J99 lpxR [5]; J99 lpxR, 48 h): >400 mg/L

GIGDPVTCLKSGAICHPVFCPRRYKQIGTCGLPGTKCCKKP (disulfide 8-37, 15-30, 20-38 (inferred)) [HBD2]
Minimal Inhibitory Concentration (MIC) (H. pylori J99 Wild Type [1]; J99 Wild Type, 48 h): >25 mg/L
Minimal Inhibitory Concentration (MIC) (H. pylori J99 lpxE [2]; J99 lpxE, 48 h): 23 ± 3 mg/L
Minimal Inhibitory Concentration (MIC) (H. pylori J99 lpxF [3]; J99 lpxF, 48 h): 12 ± 1 mg/L
Minimal Inhibitory Concentration (MIC) (H. pylori J99 lpxE/F [4]; J99 lpxE/F, 48 h): 5.0 ± 1.0 mg/L
Minimal Inhibitory Concentration (MIC) (H. pylori J99 lpxR [5]; J99 lpxR, 48 h): >25 mg/L

CC[C@H](C)[C@H](NC(=O)[C@H](CCCCN)NC(=O)[C@H](CCC(=O)O)NC(=O)[C@H](CCCCN)NC(=O)[C@H](CO)NC(=O)[C@H](CCCCN)NC(=O)[C@H](CCCNC(=N)N)NC(=O)[C@H](Cc1ccccc1)NC(=O)[C@H](Cc1ccccc1)NC(=O)[C@H](CC(=O)O)NC(=O)CNC(=O)[C@H](CC(C)C)NC(=O)[C@@H](N)CC(C)C)C(=O)NCC(=O)N[C@@H](CCCCN)C(=O)N[C@@H](CCC(=O)O)C(=O)N[C@@H](Cc1ccccc1)C(=O)N[C@@H](CCCCN)C(=O)N[C@@H](CCCNC(=N)N)C(=O)N[C@H](C(=O)N[C@H](C(=O)N[C@@H](CCC(N)=O)C(=O)N[C@@H](CCCNC(=N)N)C(=O)N[C@H](C(=O)N[C@@H](CCCCN)C(=O)N[C@@H](CC(=O)O)C(=O)N[C@@H](Cc1ccccc1)C(=O)N[C@@H](CC(C)C)C(=O)N[C@@H](CCCNC(=N)N)C(=O)N[C@@H](CC(N)=O)C(=O)N[C@@H](CC(C)C)C(=O)N[C@H](C(=O)N1CCC[C@H]1C(=O)N[C@@H](CCCNC(=N)N)C(=O)N[C@H](C(=O)N[C@@H](CCC(=O)O)C(=O)N[C@@H](CO)C(=O)O)[C@@H](C)O)C(C)C)[C@@H](C)CC)C(C)C)[C@@H](C)CC [LL37]
Minimal Inhibitory Concentration (MIC) (H. pylori J99 Wild Type [1]; J99 Wild Type, 48 h): 40 ± 5 mg/L
Minimal Inhibitory Concentration (MIC) (H. pylori J99 lpxE [2]; J99 lpxE, 48 h): 40 ± 0 mg/L
Minimal Inhibitory Concentration (MIC) (H. pylori J99 lpxF [3]; J99 lpxF, 48 h): 19 ± 2 mg/L
Minimal Inhibitory Concentration (MIC) (H. pylori J99 lpxE/F [4]; J99 lpxE/F, 48 h): 11 ± 1 mg/L
Minimal Inhibitory Concentration (MIC) (H. pylori J99 lpxR [5]; J99 lpxR, 48 h): 41 ± 6 mg/L
